{"source": "patent US5614192A", "about": "“T cell receptor peptides as therapeutics for immune-related disease” (Connective Therapeutics, Inc., priority 1993, dated 1997)", "key": {"TCR Vβ 8(39-59)": {"test_system": "TCR Vβ 8(39-59)", "type": "binding, rat"}, "passive EAE": {"test_system": "passive EAE", "test": "Treatment of passively induced EAE with TCR Vβ8 peptides (FIGS. 21A, 22)", "type": "in vivo, rats"}}, "note": "Where “and” joins values, the source holds several entries; their conditions need not be identical. Equal values may be shown once. Ends that are not written are not given here.", "data": [{"sequence": "DMGHGLRLIHYSYDVNSTEKG [TCR Vβ8(39-59), 21-amino acid CDR2 peptide of rat TCR Vβ8]", "values": [{"measurement": "Antisera Reactivity Against TCR Vβ 8 (39-59)", "setting": "TCR Vβ 8(39-59)", "value": "629 and 621"}, {"measurement": "severity and duration of passively induced EAE", "setting": "passive EAE; EAE induced by Vβ8.2+ T cell lines specific for BP", "value": "marked reduction in the severity and duration of EAE"}, {"measurement": "protection from lethal EAE", "setting": "passive EAE; rat, in vivo", "value": "protected all of the recipients from lethal EAE"}]}]}
